SMILES strings stand for the structures. Bounds are passed on as bounds.

In general, EC50 refers to the concentration needed to bring the measured effect to its halfway point. Low readings indicate an effect from little substance, high ones a need for much substance. A word on the Ki: it is a measure of affinity in units of concentration, obtained from inhibition or displacement. A low value points to tighter binding.

The target of test [1] is T1, EP2 (Homo sapiens, UniProt P43116). Put plainly: EP2 cAMP functional assay. Type of test: cell-based. An excerpt: (§1) U.S. patent application Ser. No. 11/553,143, filed on Oct. 26, 2006, incorporated by reference herein, describes the methods used to obtain the in vitro data in the table below.
T1 sequence (P43116 whole entry): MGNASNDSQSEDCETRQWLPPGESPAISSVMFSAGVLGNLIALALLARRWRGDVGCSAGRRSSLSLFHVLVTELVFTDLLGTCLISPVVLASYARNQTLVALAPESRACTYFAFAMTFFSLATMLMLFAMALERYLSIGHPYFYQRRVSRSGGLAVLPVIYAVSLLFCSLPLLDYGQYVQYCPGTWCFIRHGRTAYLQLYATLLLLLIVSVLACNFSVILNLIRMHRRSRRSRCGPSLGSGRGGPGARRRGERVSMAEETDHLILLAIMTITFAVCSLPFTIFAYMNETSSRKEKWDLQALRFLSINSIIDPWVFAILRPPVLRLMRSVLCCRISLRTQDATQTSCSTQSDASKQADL
Test [2] concerns the target T1, EP2. Nature of the test: EP2 binding (Ki).
Text: as §1

On to `CCCCCC(O)c1ccc(N2C(=O)C(C)C[C@@H]2COCc2ccc(C(=O)O)s2)cc1` (single isomer, unassigned) [Example 1], for which, at EP2 [1], the concentration for a half-maximal effect (EC50) was found to be 233 nM.
`CCCCCC(O)c1ccc(N2C(=O)C(C)C[C@@H]2COCc2ccc(C(=O)O)s2)cc1` (single isomer, unassigned) [Example 2] came in with an inhibition constant (Ki) at EP2 [2] above 10000 nM.
